From patent US20210322397A1, “METHOD TO PREVENT AND TREAT GINGIVAL RECESSION BY CALCIUM CHANNEL BLOCKERS, ANGIOTENSIN CONVERTING ENZYME INHIBITORS, AND ANGIOTENSIN RECEPTOR BLOCKERS” (priority 2018, published 2021)
Where two headings read alike, the source gives them in different places.

Assays:
gingival recession [1] = conditions: patient with gingival recession throughout the mouth
Excerpt: (§1) A patient is diagnosed with gingival recession throughout the mouth.
A patient is diagnosed with gingival recession throughout the mouth. A composition comprising the ACE inhibitor enalapril is directly applied to the tissue of the gum on one side of the mouth while the other side is left untreated.
A patient is diagnosed with gingival recession throughout the mouth. A composition comprising the angiotensin receptor blocker losartan is directly applied to the tissue of the gum on one side of the mouth while the other side is left untreated.
as §1
A patient is diagnosed with gingival recession throughout the mouth. A composition comprising the ACE inhibitor enalapril is administered by injection into the tissue of the gum on one side of the mouth while the other side is left untreated.
A patient is diagnosed with gingival recession throughout the mouth. A composition comprising the angiotensin receptor blocker losartan is administered by injection into the tissue of the gum on one side of the mouth while the other side is left untreated.

gingival recession [2] = conditions: patient previously successfully treated, after a period of time
Description: A composition comprising the ACE inhibitor enalapril is directly applied to the tissue of the gum on one side of the mouth while the other side is left untreated.
A composition comprising the angiotensin receptor blocker losartan is directly applied to the tissue of the gum on one side of the mouth while the other side is left untreated.
A composition comprising the ACE inhibitor enalapril is administered by injection into the tissue of the gum on one side of the mouth while the other side is left untreated.
A composition comprising the angiotensin receptor blocker losartan is administered by injection into the tissue of the gum on one side of the mouth while the other side is left untreated.

[3] = composition administered by injection into the tissue of the gum on one side
[4] = composition directly applied to the tissue of the gum on one side

SMILES	symptoms of gingival recession, treated side versus untreated side (gingival recession [1]; [3])	symptoms of gingival recession, treated side versus untreated side (gingival recession [1]; [4])	recurrence of symptoms of gingival recession, treated side versus untreated side (gingival recession [2]; [3])	recurrence of symptoms of gingival recession, treated side versus untreated side (gingival recession [2]; [4])
CCOC(=O)[C@H](CCc1ccccc1)N[C@@H](C)C(=O)N1CCC[C@H]1C(=O)O [enalapril]	reduced symptoms of gingival recession	reduced symptoms of gingival recession	free of symptoms of gingival recession	free of symptoms of gingival recession
CCCCc1nc(Cl)c(CO)n1Cc1ccc(-c2ccccc2-c2nn[nH]n2)cc1 [losartan]	reduced symptoms of gingival recession	reduced symptoms of gingival recession	free of symptoms of gingival recession	free of symptoms of gingival recession
